In patent US9884832B2 (priority 2011, dated 2018):
Read-outs that look alike come from different tables or passages of the source.

Columns and labels:
[1] = molecular target: AM2 S31N (serine→asparagine mutation at residue 31 in the M2 protein) (Influenza A virus, UniProt P0DOF5, S31N); assay type: cell-based, influenza virus A/Udorn/72
[2] = molecular target: AM2 V27A (valine→alanine mutation at residue 27 in the M2 protein) (Influenza A virus, UniProt P0DOF5, V27A); assay type: cell-based, influenza virus A/Udorn/72

Row | SMILES | S31N OOcyte Inhibition at 100 uM (%) ([1]; pH 5.5) | V27A OOcyte Inhibition at 100 uM (%) ([2]; pH 5.5) | S31N OOcyte Inhibition at 100 uM (%) [1] | V27A OOcyte Inhibition at 100 uM (%) [2]
1 | c1cn(-c2ccc(CNC34CC5CC(CC(C5)C3)C4)cc2)cn1 [Example 36, Adamantan-1-yl-(4-imidazol-1-yl-benzyl)-amine] | B (key: (A)=31-95%; (B)=0-30%) | B (key: (A)=31-95%; (B)=0-30%) |  | 
2 | O=C(Oc1ccc(CNC23CC4CC(CC(C4)C2)C3)cc1)c1cccs1 [Example 37, Thiophene-2-carboxylic acid 4-(adamantan-1-ylaminomethyl)-phenyl ester] | A (key: (A)=31-95%; (B)=0-30%) | B (key: (A)=31-95%; (B)=0-30%) |  | 
3 | Oc1cc(OCc2ccccc2)ccc1CNC12CC3CC(CC(C3)C1)C2 [Example 37a, 2-(Adamantan-1-ylaminomethyl)-5-benzyloxy-phenol] |  |  | A (key: (A)=31-95%; (B)=0-30%) | B (key: (A)=31-95%; (B)=0-30%)
4 | CN(CCC#N)c1ccc(CNC23CC4CC(CC(C4)C2)C3)cc1 [Example 38, 3-((4-((Adamantan-1-ylamino)methyl)phenyl)(methyl)amino)propanenitrile] | A (key: (A)=31-95%; (B)=0-30%) | B (key: (A)=31-95%; (B)=0-30%) |  | 
5 | c1ccc2cc(COc3ccc(CNC45CC6CC(CC(C6)C4)C5)cc3)ccc2c1 [Example 38a, N-(4-(naphthalen-2-ylmethoxy)benzyl)adamantan-1-amine] |  |  | B (key: (A)=31-95%; (B)=0-30%) | B (key: (A)=31-95%; (B)=0-30%)
6 | NC(=O)COc1ccc(CNC23CC4CC(CC(C4)C2)C3)cc1 [Example 39, 2-(4-((Adamantan-1-ylamino)methyl)phenoxy)acetamide] | B (key: (A)=31-95%; (B)=0-30%) | B (key: (A)=31-95%; (B)=0-30%) |  | 
7 | c1cnc2ccc(CNC34CC5CC(CC(C5)C3)C4)cc2c1 [Example 39a, Adamantan-1-yl-quinolin-6-ylmethyl-amine] |  |  | A (key: (A)=31-95%; (B)=0-30%) | B (key: (A)=31-95%; (B)=0-30%)
8 | c1nc(-c2ccc(CNC34CC5CC(CC(C5)C3)C4)cc2)no1 [Example 40, Adamantan-1-yl-(4-[1,2,4]oxadiazol-3-yl-benzyl)-amine] | A (key: (A)=31-95%; (B)=0-30%) | B (key: (A)=31-95%; (B)=0-30%) |  | 
9 | COc1ccc2cc(CNC34CC5CC(CC(C5)C3)C4)ccc2c1 [Example 40a, Adamantan-1-yl-(6-methoxy-naphthalen-2-ylmethyl)-amine] |  |  | B (key: (A)=31-95%; (B)=0-30%) | A (key: (A)=31-95%; (B)=0-30%)
10 | Brc1ccc(CNC23CC4CC(CC(C4)C2)C3)cc1 [Example 41, N-(4-Bromobenzyl)adamantan-1-amine] | A (key: (A)=31-95%; (B)=0-30%) | B (key: (A)=31-95%; (B)=0-30%) |  | 
11 | c1cc2cc(CNC34CC5CC(CC(C5)C3)C4)ccc2s1 [Example 41a, N-(benzo[b]thiophen-5-ylmethyl)adamantan-1-amine] |  |  | B (key: (A)=31-95%; (B)=0-30%) | A (key: (A)=31-95%; (B)=0-30%)
12 | c1cc(-c2ccc(CNC34CC5CC(CC(C5)C3)C4)cc2)co1 [Example 42, N-(4-(Furan-3-yl)benzyl)adamantan-1-amine] | A (key: (A)=31-95%; (B)=0-30%) | B (key: (A)=31-95%; (B)=0-30%) |  | 
13 | O=c1ccc2cc(CNC34CC5CC(CC(C5)C3)C4)ccc2o1 [Example 42a, 6-((adamantan-1-ylamino)methyl)-2H-chromen-2-one] |  |  | B (key: (A)=31-95%; (B)=0-30%) | B (key: (A)=31-95%; (B)=0-30%)
14 | CC(=O)c1sccc1-c1ccc(CNC23CC4CC(CC(C4)C2)C3)cc1 [Example 43, 1-(3-(4-((Adamantan-1-ylamino)methyl)phenyl)thiophen-2-yl)ethanone] | A (key: (A)=31-95%; (B)=0-30%) | A (key: (A)=31-95%; (B)=0-30%) |  | 
15 | c1csc(-c2ccc(CNC34CC5CC(CC(C5)C3)C4)cc2)c1 [Example 44, N-(4-(Thiophen-2-yl)benzyl)adamantan-1-amine] | A (key: (A)=31-95%; (B)=0-30%) | B (key: (A)=31-95%; (B)=0-30%) |  | 
16 | CC(=O)c1ccc(CNC23CC4CC(CC(C4)C2)C3)cc1 [Example 44a] |  |  | B (key: (A)=31-95%; (B)=0-30%) | B (key: (A)=31-95%; (B)=0-30%)
17 | Oc1ccc(CNC23CC4CC(CC(C4)C2)C3)cc1O [Example 45, 4-(Adamantan-1-ylaminomethyl)-benzene-1,2-diol] | B (key: (A)=31-95%; (B)=0-30%) | A (key: (A)=31-95%; (B)=0-30%) |  | 

Row | SMILES | S31N OOcyte Inhibition at 100 uM (%) ([1]; pH 5.5) | V27A OOcyte Inhibition at 100 uM (%) ([2]; pH 5.5) | S31N OOcyte Inhibition at 100 uM (%) [1] | V27A OOcyte Inhibition at 100 uM (%) [2]
18 | O=C1CCCN1c1ccc(CNC23CC4CC(CC(C4)C2)C3)cc1 [Example 45a, 1-(4-((adamantan-1-ylamino)methyl)phenyl)pyrrolidin-2-one] |  |  | A (key: (A)=31-95%; (B)=0-30%) | B (key: (A)=31-95%; (B)=0-30%)
19 | Oc1ccc(CNC23CC4CC(CC(C4)C2)C3)c(O)c1 [Example 46, 4-(Adamantan-1-ylaminomethyl)-benzene-1,3-diol] | A (key: (A)=31-95%; (B)=0-30%) | A (key: (A)=31-95%; (B)=0-30%) |  | 
20 | Oc1ccc(CNC23CC4CC(CC(C4)C2)C3)cc1Cl [Example 47, 4-(Adamantan-1-ylaminomethyl)-2-chloro-phenol] | B (key: (A)=31-95%; (B)=0-30%) | A (key: (A)=31-95%; (B)=0-30%) |  | 
21 | Oc1cc(-c2ccccc2)ccc1CNC12CC3CC(CC(C3)C1)C2 [Example 47a, 4-(Adamantan-1-ylaminomethyl)-biphenyl-3-ol] |  |  | A (key: (A)=31-95%; (B)=0-30%) | B (key: (A)=31-95%; (B)=0-30%)
22 | Oc1ccc(CNC23CC4CC(CC(C4)C2)C3)cc1F [Example 48, 4-(Adamantan-1-ylaminomethyl)-2-fluoro-phenol] | A (key: (A)=31-95%; (B)=0-30%) | A (key: (A)=31-95%; (B)=0-30%) |  | 
23 | Oc1cc(-c2cc3ccccc3o2)ccc1CNC12CC3CC(CC(C3)C1)C2 [Example 48a] |  |  | B (key: (A)=31-95%; (B)=0-30%) | B (key: (A)=31-95%; (B)=0-30%)
24 | c1cc2c(cc1CNC13CC4CC(CC(C4)C1)C3)OCO2 [Example 49] | B (key: (A)=31-95%; (B)=0-30%) | B (key: (A)=31-95%; (B)=0-30%) |  | 
25 | COc1cc(CNC23CC4CC(CC(C4)C2)C3)ccc1O [Example 50, 4-(Adamantan-1-ylaminomethyl)-2-methoxy-phenol] | B (key: (A)=31-95%; (B)=0-30%) | A (key: (A)=31-95%; (B)=0-30%) |  | 
26 | Cc1cc(CNC23CC4CC(CC(C4)C2)C3)ccc1O [Example 51, 4-(Adamantan-1-ylaminomethyl)-2-methyl-phenol] | B (key: (A)=31-95%; (B)=0-30%) | B (key: (A)=31-95%; (B)=0-30%) |  | 
27 | O=[N+]([O-])c1cc(CNC23CC4CC(CC(C4)C2)C3)ccc1O [Example 52, 4-(Adamantan-1-ylaminomethyl)-2-nitro-phenol] | B (key: (A)=31-95%; (B)=0-30%) | A (key: (A)=31-95%; (B)=0-30%) |  | 
28 | OCc1cc(Br)ccc1CNC12CC3CC(CC(C3)C1)C2 [Example 52a, [2-(Adamantan-1-ylaminomethyl)-5-bromo-phenyl]methanol] |  |  | B (key: (A)=31-95%; (B)=0-30%) | B (key: (A)=31-95%; (B)=0-30%)
29 | Oc1c(CNC23CC4CC(CC(C4)C2)C3)ccc2ccccc12 [Example 53a, 2-(Adamantan-1-ylaminomethyl)-naphthalen-1-ol] |  |  | A (key: (A)=31-95%; (B)=0-30%) | B (key: (A)=31-95%; (B)=0-30%)
30 | Fc1ccc(CNC23CC4CC(CC(C4)C2)C3)c(F)c1 [Example 54, Adamantan-1-yl-(2,4-difluoro-benzyl)-amine] | B (key: (A)=31-95%; (B)=0-30%) | B (key: (A)=31-95%; (B)=0-30%) |  | 
31 | CSc1ccc(CNC23CC4CC(CC(C4)C2)C3)c(SC)c1 [Example 55, Adamantan-1-yl-(2,4-bis-methylsulfanyl-benzyl)-amine] | B (key: (A)=31-95%; (B)=0-30%) | B (key: (A)=31-95%; (B)=0-30%) |  | 
32 | COc1cc(O)ccc1CNC12CC3CC(CC(C3)C1)C2 [Example 56, 4-(Adamantan-1-ylaminomethyl)-3-methoxy-phenol] | B (key: (A)=31-95%; (B)=0-30%) | B (key: (A)=31-95%; (B)=0-30%) |  | 
33 | c1ccc2nc(CNC34CC5CC(CC(C5)C3)C4)ccc2c1 [Example 56a, Adamantan-1-yl-quinolin-2-ylmethyl-amine] |  |  | A (key: (A)=31-95%; (B)=0-30%) | B (key: (A)=31-95%; (B)=0-30%)
